Broadly, the half-life is the time needed for the level to fall by half in the phase considered. Usually EC50 stands for the concentration that produces a half-maximal response.

The values below come from ChEMBL document CHEMBL4765314, “Rational design and biological evaluation of gemfibrozil modified Xenopus GLP-1 derivatives as long-acting hypoglycemic agents” (Eur J Med Chem, 2020).

A short description of series [1]: Stability in Sprague-Dawley rat plasma assessed as half life at 1000 ng/ml measured up to 48 hrs under shaking condition by LC-MS/MS analysis. The class given is ADME, cell-free.
Series [2] addresses Glucagon-like peptide 1 receptor (Homo sapiens, UniProt P43220). Description: Agonist activity at human GLP-1R expressed in HEK293 cells assessed as stimulation of cAMP accumulation incubated for 60 mins by HTRF assay. The format is functional, cell-based. On the technique in general: cAMP levels reflect the balance of adenylyl cyclase and phosphodiesterase activity.
In series [3] the test system is Mus musculus. Put plainly: Hypoglycemic activity in 12 hrs fasted ICR mouse assessed as reduction in blood glucose level at 25 nmol/kg, ip dosed 30 mins before glucose challenge measured up to 120 mins by OGTT method. Particulars: time 150.0 min. The class given is functional, organism-based.
Series [4] can be described thus: Stability in Sprague-Dawley rat plasma at 1000 ng/ml measured up to 48 hrs under shaking condition by LC-MS/MS analysis. The class given is ADME, cell-free.

The source made the active and inactive calls. Starred links: 1 amine or outer side, 2 acyl side, 3 side chain; linkers in the order of their positions; H or OH if unused. Residues, ends and D or L forms follow the SMILES beside them. Groups on a side chain read outwards from the residue. *: point of attachment. X5 = CC(=O)[C@H](CCCCNC(=O)CC[C@H](NC(=O)CCCCCCCCCCNC(=O)COC(=O)C(C)(C)CCCOc1cc(C)ccc1C)C(=O)O)N*; X4 = CC(=O)[C@H](CCCCNC(=O)CC[C@H](NC(=O)COC(=O)C(C)(C)CCCOc1cc(C)ccc1C)C(=O)O)N*; Glycoloyl(O-gemfibrozoyl) = Cc1ccc(C)c(OCCCC(C)(C)C(=O)OCC(=O)*)c1; γGlu = O=C(O)[C@H](CCC(=O)[*:2])N[*:1]; Aun = NCCCCCCCCCCC(=O)O; Ahx = NCCCCCC(=O)O

Chain of Glucagon-like peptide 1 receptor (P43220 whole entry): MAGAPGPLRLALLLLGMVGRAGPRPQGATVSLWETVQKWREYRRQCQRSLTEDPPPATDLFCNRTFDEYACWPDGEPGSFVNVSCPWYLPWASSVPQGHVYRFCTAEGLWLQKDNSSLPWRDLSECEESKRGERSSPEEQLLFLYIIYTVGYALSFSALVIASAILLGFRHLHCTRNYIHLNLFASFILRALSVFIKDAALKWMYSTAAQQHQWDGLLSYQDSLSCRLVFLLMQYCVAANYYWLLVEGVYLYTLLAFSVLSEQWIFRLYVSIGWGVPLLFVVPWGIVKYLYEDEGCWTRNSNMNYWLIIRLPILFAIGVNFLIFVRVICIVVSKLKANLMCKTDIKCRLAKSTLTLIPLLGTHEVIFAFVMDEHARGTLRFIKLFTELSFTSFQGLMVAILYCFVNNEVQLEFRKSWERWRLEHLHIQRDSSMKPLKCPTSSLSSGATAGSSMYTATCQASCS

Consider `CC[C@H](C)[C@H](NC(=O)[C@H](CC(C)C)NC(=O)[C@H](Cc1c[nH]c2ccccc12)NC(=O)[C@H](CCC(=O)O)NC(=O)[C@@H](NC(=O)[C@H](Cc1ccccc1)NC(=O)[C@H](CCC(=O)O)NC(=O)[C@H](CCCCNC(=O)CC[C@H](NC(=O)CCCCCCCCCCNC(=O)COC(=O)C(C)(C)CCCOc1cc(C)ccc1C)C(=O)O)NC(=O)[C@H](C)NC(=O)[C@H](C)NC(=O)[C@H](CCC(=O)O)NC(=O)[C@H](CCC(=O)O)NC(=O)[C@H](CCC(=O)O)NC(=O)[C@H](CC(C)C)NC(=O)[C@H](Cc1ccc(O)cc1)NC(=O)[C@H](CCC(=O)O)NC(=O)[C@@H](NC(=O)[C@@H](NC(=O)[C@H](CC(=O)O)NC(=O)[C@H](CC(N)=O)NC(=O)[C@@H](NC(=O)[C@H](Cc1ccc(O)cc1)NC(=O)[C@@H](NC(=O)CNC(=O)[C@H](CCC(=O)O)NC(=O)CNC(=O)[C@@H](N)Cc1cnc[nH]1)[C@@H](C)O)[C@@H](C)O)C(C)C)[C@@H](C)O)[C@@H](C)CC)C(=O)N[C@@H](CCCCN)C(=O)NCC(=O)N[C@@H](CCCCN)C(=O)O` (H-HGEGTYTNDVTEYLEEEAAK([γGlu-Aun-Glycoloyl(O-gemfibrozoyl)])EFIEWLIKGK-OH), for which the half-life at 1000 ng/ml in series [1] was 18.1 h. Further, the EC50 in series [2] amounted to 0.093 nM. In series [3], the outcome was Active. The Stabilty entry in series [4] is given as “Stable”.
As for `CC[C@H](C)[C@H](NC(=O)[C@H](CC(C)C)NC(=O)[C@H](Cc1c[nH]c2ccccc12)NC(=O)[C@H](CCC(=O)O)NC(=O)[C@@H](NC(=O)[C@H](Cc1ccccc1)NC(=O)[C@H](CCC(=O)O)NC(=O)[C@H](CCCCN)NC(=O)[C@H](C)NC(=O)[C@H](C)NC(=O)[C@H](CCC(=O)O)NC(=O)[C@H](CCC(=O)O)NC(=O)[C@H](CCC(=O)O)NC(=O)[C@H](CC(C)C)NC(=O)[C@H](Cc1ccc(O)cc1)NC(=O)[C@H](CCC(=O)O)NC(=O)[C@@H](NC(=O)[C@@H](NC(=O)[C@H](CC(=O)O)NC(=O)[C@H](CC(N)=O)NC(=O)[C@@H](NC(=O)[C@H](Cc1ccc(O)cc1)NC(=O)[C@@H](NC(=O)CNC(=O)[C@H](CCC(=O)O)NC(=O)CNC(=O)[C@@H](N)Cc1cnc[nH]1)[C@@H](C)O)[C@@H](C)O)C(C)C)[C@@H](C)O)[C@@H](C)CC)C(=O)N[C@@H](CCCCNC(=O)CC[C@H](NC(=O)CCCCCNC(=O)COC(=O)C(C)(C)CCCOc1cc(C)ccc1C)C(=O)O)C(=O)NCC(=O)N[C@@H](CCCCN)C(=O)O` (H-HGEGTYTNDVTEYLEEEAAKEFIEWLIK([γGlu-Ahx-Glycoloyl(O-gemfibrozoyl)])GK-OH), the EC50 in series [2] is 0.21 nM. Moreover, the outcome in series [3] was Active. Besides, the Stabilty entry in series [4] was “Stable”.
`CC[C@H](C)[C@H](NC(=O)[C@H](CC(C)C)NC(=O)[C@H](Cc1c[nH]c2ccccc12)NC(=O)[C@H](CCC(=O)O)NC(=O)[C@@H](NC(=O)[C@H](Cc1ccccc1)NC(=O)[C@H](CCC(=O)O)NC(=O)[C@H](CCCCN)NC(=O)[C@H](C)NC(=O)[C@H](C)NC(=O)[C@H](CCC(=O)O)NC(=O)[C@H](CCC(=O)O)NC(=O)[C@H](CCC(=O)O)NC(=O)[C@H](CC(C)C)NC(=O)[C@H](Cc1ccc(O)cc1)NC(=O)[C@H](CCC(=O)O)NC(=O)[C@@H](NC(=O)[C@@H](NC(=O)[C@H](CC(=O)O)NC(=O)[C@H](CC(N)=O)NC(=O)[C@@H](NC(=O)[C@H](Cc1ccc(O)cc1)NC(=O)[C@@H](NC(=O)CNC(=O)[C@H](CCC(=O)O)NC(=O)CNC(=O)[C@@H](N)Cc1cnc[nH]1)[C@@H](C)O)[C@@H](C)O)C(C)C)[C@@H](C)O)[C@@H](C)CC)C(=O)N[C@@H](CCCCNC(=O)CC[C@H](NC(=O)CCCCCCCCCCNC(=O)COC(=O)C(C)(C)CCCOc1cc(C)ccc1C)C(=O)O)C(=O)NCC(=O)N[C@@H](CCCCN)C(=O)O` (H-HGEGTYTNDVTEYLEEEAAKEFIEWLIK([γGlu-Aun-Glycoloyl(O-gemfibrozoyl)])GK-OH): the EC50 in series [2] was found to be 0.21 nM. Further, the outcome in series [3] was Active. For the same compound, in series [4], the Stabilty result is “Stable”.
Regarding `CC[C@H](C)[C@H](NC(=O)[C@H](CC(C)C)NC(=O)[C@H](Cc1c[nH]c2ccccc12)NC(=O)[C@H](CCC(=O)O)NC(=O)[C@@H](NC(=O)[C@H](Cc1ccccc1)NC(=O)[C@H](CCC(=O)O)NC(=O)[C@H](CCCCN)NC(=O)[C@H](C)NC(=O)[C@H](C)NC(=O)[C@H](CCC(=O)O)NC(=O)[C@H](CCC(=O)O)NC(=O)[C@H](CCC(=O)O)NC(=O)[C@H](CC(C)C)NC(=O)[C@H](Cc1ccc(O)cc1)NC(=O)[C@H](CCC(=O)O)NC(=O)[C@@H](NC(=O)[C@@H](NC(=O)[C@H](CC(=O)O)NC(=O)[C@H](CC(N)=O)NC(=O)[C@@H](NC(=O)[C@H](Cc1ccc(O)cc1)NC(=O)[C@@H](NC(=O)CNC(=O)[C@H](CCC(=O)O)NC(=O)CNC(=O)[C@@H](N)Cc1cnc[nH]1)[C@@H](C)O)[C@@H](C)O)C(C)C)[C@@H](C)O)[C@@H](C)CC)C(=O)N[C@@H](CCCCNC(=O)CC[C@H](NC(=O)COC(=O)C(C)(C)CCCOc1cc(C)ccc1C)C(=O)O)C(=O)NCC(=O)N[C@@H](CCCCN)C(=O)O` (H-HGEGTYTNDVTEYLEEEAAKEFIEWLIK([γGlu-Glycoloyl(O-gemfibrozoyl)])GK-OH), the EC50 in series [2] is 0.21 nM. Besides, in series [3], the outcome was Active. The Stabilty entry in series [4] is listed as “Stable”.
The corresponding values for `CC[C@H](C)[C@H](NC(=O)[C@H](CC(C)C)NC(=O)[C@H](Cc1c[nH]c2ccccc12)NC(=O)[C@H](CCC(=O)O)NC(=O)[C@@H](NC(=O)[C@H](Cc1ccccc1)NC(=O)[C@H](CCC(=O)O)NC(=O)[C@H](CCCCN)NC(=O)[C@H](C)NC(=O)[C@H](C)NC(=O)[C@H](CCC(=O)O)NC(=O)[C@H](CCC(=O)O)NC(=O)[C@H](CCC(=O)O)NC(=O)[C@H](CC(C)C)NC(=O)[C@H](Cc1ccc(O)cc1)NC(=O)[C@H](CCC(=O)O)NC(=O)[C@@H](NC(=O)[C@@H](NC(=O)[C@H](CC(=O)O)NC(=O)[C@H](CC(N)=O)NC(=O)[C@@H](NC(=O)[C@H](Cc1ccc(O)cc1)NC(=O)[C@@H](NC(=O)CNC(=O)[C@H](CCC(=O)O)NC(=O)CNC(=O)[C@@H](N)Cc1cnc[nH]1)[C@@H](C)O)[C@@H](C)O)C(C)C)[C@@H](C)O)[C@@H](C)CC)C(=O)N[C@@H](CCCCN)C(=O)NCC(=O)N[C@@H](CCCCNC(=O)CC[C@H](NC(=O)COC(=O)C(C)(C)CCCOc1cc(C)ccc1C)C(=O)O)C(C)=O` (H-HGEGTYTNDVTEYLEEEAAKEFIEWLIKG-X4) are 0.38 nM, “Active” and “Stable”.
The corresponding values for `CC[C@H](C)[C@H](NC(=O)[C@H](CC(C)C)NC(=O)[C@H](Cc1c[nH]c2ccccc12)NC(=O)[C@H](CCC(=O)O)NC(=O)[C@@H](NC(=O)[C@H](Cc1ccccc1)NC(=O)[C@H](CCC(=O)O)NC(=O)[C@H](CCCCN)NC(=O)[C@H](C)NC(=O)[C@H](C)NC(=O)[C@H](CCC(=O)O)NC(=O)[C@H](CCC(=O)O)NC(=O)[C@H](CCC(=O)O)NC(=O)[C@H](CC(C)C)NC(=O)[C@H](Cc1ccc(O)cc1)NC(=O)[C@H](CCC(=O)O)NC(=O)[C@@H](NC(=O)[C@@H](NC(=O)[C@H](CC(=O)O)NC(=O)[C@H](CC(N)=O)NC(=O)[C@@H](NC(=O)[C@H](Cc1ccc(O)cc1)NC(=O)[C@@H](NC(=O)CNC(=O)[C@H](CCC(=O)O)NC(=O)CNC(=O)[C@@H](N)Cc1cnc[nH]1)[C@@H](C)O)[C@@H](C)O)C(C)C)[C@@H](C)O)[C@@H](C)CC)C(=O)N[C@@H](CCCCN)C(=O)NCC(=O)N[C@@H](CCCCNC(=O)CC[C@H](NC(=O)CCCCCCCCCCNC(=O)COC(=O)C(C)(C)CCCOc1cc(C)ccc1C)C(=O)O)C(C)=O` (H-HGEGTYTNDVTEYLEEEAAKEFIEWLIKG-X5) are 0.38 nM, “Active” and “Stable”.
On to `CC[C@H](C)[C@H](NC(=O)[C@H](CC(C)C)NC(=O)[C@H](Cc1c[nH]c2ccccc12)NC(=O)[C@H](CCC(=O)O)NC(=O)[C@@H](NC(=O)[C@H](Cc1ccccc1)NC(=O)[C@H](CCC(=O)O)NC(=O)[C@H](CCCCN)NC(=O)[C@H](C)NC(=O)[C@H](C)NC(=O)[C@H](CCC(=O)O)NC(=O)[C@H](CCC(=O)O)NC(=O)[C@H](CCC(=O)O)NC(=O)[C@H](CC(C)C)NC(=O)[C@H](Cc1ccc(O)cc1)NC(=O)[C@H](CCC(=O)O)NC(=O)[C@@H](NC(=O)[C@@H](NC(=O)[C@H](CC(=O)O)NC(=O)[C@H](CC(N)=O)NC(=O)[C@@H](NC(=O)[C@H](Cc1ccc(O)cc1)NC(=O)[C@@H](NC(=O)CNC(=O)[C@H](CCC(=O)O)NC(=O)CNC(=O)[C@@H](N)Cc1cnc[nH]1)[C@@H](C)O)[C@@H](C)O)C(C)C)[C@@H](C)O)[C@@H](C)CC)C(=O)N[C@@H](CCCCN)C(=O)NCC(=O)N[C@@H](CCCCNC(=O)CC[C@H](NC(=O)CCCCCNC(=O)COC(=O)C(C)(C)CCCOc1cc(C)ccc1C)C(=O)O)C(=O)O` (H-HGEGTYTNDVTEYLEEEAAKEFIEWLIKGK([γGlu-Ahx-Glycoloyl(O-gemfibrozoyl)])-OH), for which, in series [2], the EC50 was found to be 0.38 nM. Moreover, in series [3], the result was Active. The Stabilty result in series [4] was “Stable”.
With `CC[C@H](C)[C@H](NC(=O)[C@H](CC(C)C)NC(=O)[C@H](Cc1c[nH]c2ccccc12)NC(=O)[C@H](CCC(=O)O)NC(=O)[C@@H](NC(=O)[C@H](Cc1ccccc1)NC(=O)[C@H](CCC(=O)O)NC(=O)[C@H](CCCCNC(=O)CC[C@H](NC(=O)COC(=O)C(C)(C)CCCOc1cc(C)ccc1C)C(=O)O)NC(=O)[C@H](C)NC(=O)[C@H](C)NC(=O)[C@H](CCC(=O)O)NC(=O)[C@H](CCC(=O)O)NC(=O)[C@H](CCC(=O)O)NC(=O)[C@H](CC(C)C)NC(=O)[C@H](Cc1ccc(O)cc1)NC(=O)[C@@H](NC(=O)[C@@H](NC(=O)[C@@H](NC(=O)[C@H](CC(=O)O)NC(=O)[C@H](CC(N)=O)NC(=O)[C@@H](NC(=O)[C@H](Cc1ccc(O)cc1)NC(=O)[C@@H](NC(=O)CNC(=O)[C@H](CCC(=O)O)NC(=O)CNC(=O)[C@@H](N)Cc1cnc[nH]1)[C@@H](C)O)[C@@H](C)O)C(C)C)[C@@H](C)O)C(C)C)[C@@H](C)CC)C(=O)N[C@@H](CCCCN)C(=O)NCC(=O)N[C@@H](CCCCN)C(=O)O` (H-HGEGTYTNDVTVYLEEEAAK([γGlu-Glycoloyl(O-gemfibrozoyl)])EFIEWLIKGK-OH), in series [2], the EC50 came out at 0.093 nM. Also, the outcome in series [3] was Active. Moreover, the Stabilty entry in series [4] is on record as “Stable”.
